Source: US20240316171A1, “COMPOSITIONS AND METHODS FOR TARGETED IMMUNOTHERAPY” (Dana-Farber Cancer Institute, Inc., priority 2018, published 2024)
Read-outs that look alike come from different tables or passages of the source.

Experiments:
[1] = Stock solutions/solubility; type: physicochemical; settings: thermodynamic from solid
Protocol: Compound 1 was not soluble in buffer solution 50 mM 4-(2-hydroxyethyl)-1-piperazineethanesulfonic acid (HEPES) pH 7 at 2 mg/ml at room temperature overnight. In contrast, DMSO readily dissolved compound 1 at 2 mg/ml forming a clear solution. Compound 2 dissolved immediately at 1.5 mg/ml in buffer solution 50 mM HEPES pH 7 forming a yellow solution.

[2] = Uncaging in samples not treated with H2O2; type: physicochemical
Excerpt: Fluorescence-detected HPLC confirmed that H2O2 reaction with compound 3 produced the desired product (4). […] Addition of 0.5M EDTA, pH 8.0 (Ultrapure Grade, Boston BioProducts) to the samples remedied the undesired uncaging of the compounds.

[3] = Uncaging of compound 1 with hydrogen peroxide (fluorescence, HPLC); settings: relatively high H2O2 concentrations (100 mM), HPLC analysis of products
Protocol: Hydrogen peroxide is expected to uncage compound 1 to produce compound 2. […] 20 μM compound 1 samples were prepared by 1:100 dilution of stock into 50 mM HEPES pH 7 buffer and the reaction started by […] to give final concentrations of 0.3, 0.03 or 0.003 percent. The concentration of the 30% stock H2O2 was confirmed by measuring the absorbance at 240 nm using an extinction coefficient of 43.6 M^−1 cm^−1.
A time-course of the kinetic response of compound 1 to H2O2 at 100 mM H2O2 is illustrated in FIG. 10. Multiple (3) peaks, including compound 1, were observed by HPLC. […] The possible side products are shown below.

[4] = 50 mM HEPES buffer, aqueous buffer, 50 mM HEPES pH 7, compound 1 at room temperature overnight, read-out: solubility in buffer solution

| SMILES | solubility [1, 4] [mg/mL] | solubility ([1]; organic solvent or mixture, DMSO, clear solution, read-out: solubility in DMSO) [mg/mL] | uncaging without H2O2 [2] | stability of maleimide moiety in the presence of H2O2 [3] |
| --- | --- | --- | --- | --- |
| CC1(C)[C@@H]2CC3OB(c4ccc5c(c4)Oc4cc(B6OC7C[C@@H]8C[C@@H](C8(C)C)[C@]7(C)O6)ccc4C54OC(=O)c5cc(NC(=O)CCOCCOCCNC(=O)CCN6C(=O)C=CC6=O)ccc54)O[C@@]3(C)[C@H]1C2 (stereo partly drawn) [Compound 1, 3-(2,5-dioxo-2,5-dihydro-1H-pyrrol-1-yl)-N-(2-(2-(3-oxo-3-((3-oxo-3′,6′-bis((3aS,4S,6S)-3a,5,5-trimethylhexahydro-4,6-methanobenzo[d][1,3,2]dioxaborol-2-yl)-3H-spiro[isobenzofuran-1,9′-xanthen]-5-yl)amino)propoxy)ethoxy)ethyl)propanamide] | < 2 | ≥ 2 | Slow uncaging | maleimide moiety is unstable |
| O=C(CCN1C(=O)C=CC1=O)NCCOCCOCCC(=O)Nc1ccc2c(c1)C(=O)OC21c2ccc(O)cc2Oc2cc(O)ccc21 [Compound 2, N-(3′,6′-dihydroxy-3-oxo-3H-spiro[isobenzofuran-1,9′-xanthen]-5-yl)-3-(2-(2-(3-(2,5-dioxo-2,5-dihydro-1H-pyrrol-1-yl)propanamido)ethoxy)ethoxy)propanamide] | ≥ 1.5 |  |  |  |
| CC1(C)[C@@H]2C[C@H]1C1OB(c3ccc4c(c3)Oc3cc(B5OC6C[C@@H]7C[C@@H](C7(C)C)[C@]6(C)O5)ccc3C43OC(=O)c4cc(NC(=O)CCOCCOCCNC(=O)CCN5C(=O)CC(SC[C@H](N)C(=O)O)C5=O)ccc43)O[C@@]1(C)C2 (stereo partly drawn) [Compound 3, S-(2,5-dioxo-1-(3-oxo-3-((2-(2-(3-oxo-3-((3-oxo-3′-((3aS,4S,6S)-3a,5,5-trimethylhexahydro-4,6-methanobenzo[d][1,3,2]dioxaborol-2-yl)-6′-((4R,6R,7aS)-5,5,7a-trimethylhexahydro-4,6-methanobenzo[d][1,3,2]dioxaborol-2-yl)-3H-spiro[isobenzofuran-1,9′-xanthen]-5-yl)amino)propoxy)ethoxy)ethyl)amino)propyl)pyrrolidin-3-yl)cysteine] |  |  | Slow uncaging |  |
